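Exposure lasted 48 hours, with cells grown in 96-well plates and compounds tested at five concentrations. At the GI50, growth is halved.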 Activity calls are given as the source filed them. Cut-off read from the data, not from the text of the source: active = GI50 up to about 1.1 µM and inactive = higher.
Experiments:
Test in all cases: growth of human tumour cells (NCI), 48 h
A549 = test system: A549
BT-549 = test system: BT-549
CAKI-1 = test system: CAKI-1
DU-145 = test system: DU-145
HCC 2998 = test system: HCC 2998
HL-60 = test system: HL-60
MDA-N = test system: MDA-N
MOLT-4 = test system: MOLT-4
NCI-H226 = test system: NCI-H226
NCI-H522 = test system: NCI-H522
NCI/ADR-RES = test system: NCI/ADR-RES
OVCAR-8 = test system: OVCAR-8
RPMI-8226 = test system: RPMI-8226
SF-295 = test system: SF-295
SF-539 = test system: SF-539
SK-OV-3 = test system: SK-OV-3
SN12C = test system: SN12C
U-251 = test system: U-251
UACC-257 = test system: UACC-257
SK-MEL-5 = test system: SK-MEL-5

Measured: GI50

CCOC(=O)/C(C(=O)Nc1cccc(Cl)c1)=C(/N)N1CCOCC1
inactive: A549 > 100 µM | BT-549 > 100 µM | CAKI-1 > 100 µM | DU-145 > 100 µM | HCC 2998 > 100 µM | HL-60 > 100 µM | MDA-N > 100 µM | MOLT-4 > 100 µM | NCI-H226 > 100 µM | NCI-H522 > 100 µM | NCI/ADR-RES > 100 µM | OVCAR-8 > 100 µM | RPMI-8226 > 100 µM | SF-295 > 100 µM | SF-539 > 100 µM | SK-OV-3 > 100 µM | SN12C > 100 µM | U-251 > 100 µM | UACC-257 > 100 µM

C=C(C)CNC(=S)N(N)c1ccc2ccccc2c1
inactive: A549 > 100 µM | BT-549 > 100 µM | DU-145 > 100 µM | HCC 2998 47.3 µM | HL-60 57.3 µM | MDA-N > 100 µM | MOLT-4 > 100 µM | NCI-H226 > 100 µM | NCI-H522 46.6 µM | NCI/ADR-RES 78 µM | OVCAR-8 > 100 µM | RPMI-8226 > 100 µM | SF-295 94.2 µM | SF-539 > 100 µM | SK-MEL-5 > 100 µM | SK-OV-3 > 100 µM | SN12C > 100 µM | U-251 > 100 µM | UACC-257 > 100 µM

O=C(NN1C(=O)c2ccccc2C1=O)c1ccccc1Nc1ccccc1C(=O)NN1C(=O)c2ccccc2C1=O
inactive: BT-549 > 100 µM | CAKI-1 > 100 µM | DU-145 > 100 µM | HCC 2998 > 100 µM | HL-60 > 100 µM | MDA-N > 100 µM | MOLT-4 > 100 µM | NCI-H226 > 100 µM | NCI-H522 > 100 µM | NCI/ADR-RES > 100 µM | OVCAR-8 > 100 µM | RPMI-8226 49.2 µM | SF-295 > 100 µM | SF-539 > 100 µM | SK-MEL-5 > 100 µM | SN12C > 100 µM | U-251 > 100 µM | UACC-257 > 100 µM

CC(C)N(C(=O)c1ccc(NCc2cc(O)ccc2O)cc1)C(C)C
inactive: A549 26.2 µM | BT-549 11.9 µM | CAKI-1 14.2 µM | DU-145 16.4 µM | HL-60 2.26 µM | MDA-N 17.7 µM | MOLT-4 15.2 µM | NCI-H226 17.2 µM | NCI-H522 1.59 µM | NCI/ADR-RES 14.8 µM | OVCAR-8 14.4 µM | SF-295 21.1 µM | SF-539 12.9 µM | SK-MEL-5 14.6 µM | SK-OV-3 35.3 µM | SN12C 18.2 µM | U-251 15.8 µM | UACC-257 17.4 µM

Nc1cccc(/C=C/C(=O)N2CCN(CCOC(c3ccccc3)c3ccccc3)CC2)c1
inactive: A549 16.6 µM | BT-549 15 µM | CAKI-1 18.6 µM | DU-145 15.1 µM | HL-60 11.2 µM | MDA-N 17.8 µM | MOLT-4 5.42 µM | NCI-H226 20.9 µM | NCI-H522 15 µM | NCI/ADR-RES 17.3 µM | OVCAR-8 17.8 µM | RPMI-8226 10.5 µM | SF-295 17.3 µM | SF-539 17.3 µM | SK-MEL-5 15.9 µM | SK-OV-3 16.5 µM | SN12C 17.5 µM | U-251 15.8 µM | UACC-257 17.7 µM

CC(=O)N1c2ccccc2C2=NN(C)C(=N)SC21 (configuration not stated)
inactive: A549 > 100 µM | BT-549 > 100 µM | DU-145 > 100 µM | HCC 2998 > 100 µM | HL-60 89.5 µM | MDA-N > 100 µM | MOLT-4 > 100 µM | NCI-H226 > 100 µM | NCI-H522 67.8 µM | NCI/ADR-RES > 100 µM | OVCAR-8 > 100 µM | RPMI-8226 > 100 µM | SF-295 50.4 µM | SF-539 > 100 µM | SN12C > 100 µM | U-251 > 100 µM | UACC-257 > 100 µM

CCCCCCc1cc2cc(C(=O)Nc3cccc(F)c3)c(=N)oc2cc1O
inactive: A549 3.27 µM | BT-549 2.63 µM | CAKI-1 2.9 µM | DU-145 3.56 µM | HCC 2998 3.19 µM | HL-60 2.36 µM | MDA-N 3.14 µM | MOLT-4 1.95 µM | NCI-H522 1.59 µM | NCI/ADR-RES 2.35 µM | OVCAR-8 1.59 µM | RPMI-8226 1.62 µM | SF-295 3.2 µM | SF-539 3.26 µM | SK-MEL-5 1.4 µM | SK-OV-3 3.37 µM | U-251 1.97 µM | UACC-257 2.99 µM

O=S(=O)(O)c1cccc2cccc(/N=N/c3c(O)ccc4ccccc34)c12
inactive: A549 > 100 µM | BT-549 > 100 µM | CAKI-1 > 100 µM | DU-145 > 100 µM | HCC 2998 > 100 µM | HL-60 > 100 µM | MDA-N > 100 µM | MOLT-4 > 100 µM | NCI-H226 > 100 µM | NCI-H522 > 100 µM | NCI/ADR-RES > 100 µM | OVCAR-8 > 100 µM | SF-295 > 100 µM | SF-539 > 100 µM | SK-MEL-5 > 100 µM | SK-OV-3 > 100 µM | SN12C > 100 µM | U-251 > 100 µM | UACC-257 > 100 µM

From ChEMBL document CHEMBL1201862, “PubChem BioAssay data set” (2004)
